Earlier results in patent US20210319872A1, “DRUG AND DEVICE COMBINATION PRODUCTS WITH IMPROVED SAFETY AND EFFICACY PROFILES” (priority 2016, published 2021).
Read-outs that look alike come from different tables or passages of the source.

In the case of `Cc1nc2n(c(=O)c1CCN1CCC(c3noc4cc(F)ccc34)CC1)CCCC2` [Risperidone (Risperdal)], the Akathisia (in vivo) is listed as “Neurologic: Akathisia (oral, up to 10%; IM, 4% to 11%), Dizziness”, the Anxiety (in vivo) is listed as “Psychiatric: Anxiety (oral, up to 16% IM, less than 4%)” and the Constipation (in vivo) is listed as “Gastrointestinal: Constipation (oral, 8% to 21%; IM, 5% to 7%),”. The Diarrhea (in vivo) was “Diarrhea (oral, 1% to 8%; IM, less than 4%), Excessive salivation”, the Dystonia (in vivo) was < 5%; pediatric, 2% to 6%; IM, adult, less than 4%), Parkinsonism and the Excessive salivation (in vivo) was “(oral, 1% to 10%; IM, 1% to 4%), Increased appetite (oral, adult,”. For the same compound, the Fatigue (in vivo) was 3% to 9%), Pain, General (IM, 1% to 4%), the Hyperprolactinemia (in vivo) was < 1%; pediatrics, 49% to 87%; IM, less than 4%), Weight increased and the Increased appetite (in vivo) was “more than 5%; pediatric, 4% to 47%; IM, 4%), Indigestion (oral,”. The Indigestion (in vivo) was 2% to 10%; IM, 6%), Nausea (oral, 4% to 16%; IM, 3% to 4%),, the Nausea (in vivo) was 2% to 10%; IM, 6%), Nausea (oral, 4% to 16%; IM, 3% to 4%), and the “Pain, General” value (in vivo) was 3% to 9%), Pain, General (IM, 1% to 4%). For the same compound, the Parkinsonism (in vivo) was “(oral, 6% to 28%; IM, 8% to 15%), Sedated (oral, adult, 3% to 6%;”, the Rash (in vivo) was “IM, less than 4%)” and the Syncope (in vivo) was “Syncope (oral, up to 1%; IM, up to 2%)”. The Tardive dyskinesia (in vivo) was “less than 5%; IM, less than 4%)”, the Tremor (in vivo) was “pediatric, 8% to 29%), Tremor (oral, 2% to 12%; IM, 3% to 24%)” and the Upper respiratory infection (in vivo) was “respiratory infection (oral, 2% to 8%; IM, 2% and 6%)”. For the same compound, the Vomiting (in vivo) was < 16%), Vomiting (oral, 10% to 25%; IM, less than 4%), Xerostomia, the Weight increased (in vivo) was “(oral, adult, 8.7% to 20.9%; pediatric, 14% to 32.6%; IM, adult, 8%” and the Xerostomia (in vivo) was “(oral, 4% to 15%; IM, up to 7%)”. For the same compound, the Akathisia (in vivo, po) was “Neurologic: Akathisia (oral, up to 10%; IM, 4% to 11%), Dizziness”, the Anxiety (in vivo, po) was “Psychiatric: Anxiety (oral, up to 16% IM, less than 4%)” and the Cerebrovascular accident (in vivo, po) was “Neurologic: Cerebrovascular accident (oral, less than 5%; IM, less”. The Constipation (in vivo, po) was “Gastrointestinal: Constipation (oral, 8% to 21%; IM, 5% to 7%),”, the Diarrhea (in vivo, po) was “Diarrhea (oral, 1% to 8%; IM, less than 4%), Excessive salivation” and the Excessive salivation (in vivo, po) was “(oral, 1% to 10%; IM, 1% to 4%), Increased appetite (oral, adult,”. For the same compound, the Fatigue (in vivo, po) was “Other: Fatigue (oral, adult, 1% to 3%; pediatric, 18% to 42%; IM,”, the Hyperprolactinemia (in vivo, po) was < 1%; pediatrics, 49% to 87%; IM, less than 4%), Weight increased and the Increased appetite (in vivo, po) was “more than 5%; pediatric, 4% to 47%; IM, 4%), Indigestion (oral,”. For the same compound, the Indigestion (in vivo, po) was 2% to 10%; IM, 6%), Nausea (oral, 4% to 16%; IM, 3% to 4%),, the Nasal congestion (in vivo, po) was 4%), Nasal congestion (oral, adult, 4% to 6%; pediatric, 13%), and the Nausea (in vivo, po) was 2% to 10%; IM, 6%), Nausea (oral, 4% to 16%; IM, 3% to 4%),. For the same compound, the Pain in throat (in vivo, po) was “throat (oral, adult, more than 5%; pediatric, 3% to 10%), Upper”, the Parkinsonism (in vivo, po) was “(oral, 6% to 28%; IM, 8% to 15%), Sedated (oral, adult, 3% to 6%;” and the Rash (in vivo, po) was “Dermatologic: Rash (oral, adults, 1% to 4%; pediatrics, up to 11%;”. The Syncope (in vivo, po) was “Syncope (oral, up to 1%; IM, up to 2%)”, the Tardive dyskinesia (in vivo, po) was “less than 5%; IM, less than 4%)” and the Tremor (in vivo, po) was “pediatric, 8% to 29%), Tremor (oral, 2% to 12%; IM, 3% to 24%)”. The Upper respiratory infection (in vivo, po) was “respiratory infection (oral, 2% to 8%; IM, 2% and 6%)”, the Vomiting (in vivo, po) was 16%), Vomiting (oral, 10% to 25%; IM, less than 4%), Xerostomia and the Weight increased (in vivo, po) was “(oral, adult, 8.7% to 20.9%; pediatric, 14% to 32.6%; IM, adult, 8%”. For the same compound, the Xerostomia (in vivo, po) was “(oral, 4% to 15%; IM, up to 7%)”.
For `COc1ccc2c3c1O[C@H]1C(=O)CC[C@H]4[C@@H](C2)N(C)CC[C@]314` [Hydrocodone, reference compound], the Abdominal pain (in vivo) is listed as “Gastrointestinal: Abdominal pain (1% to less than 5%),”, the Constipation (in vivo) is listed as “Constipation (3% to 11%), Nausea (7% to 10%), Vomiting (3% to” and the Difficulty swallowing (in vivo) is listed as “Gastrointestinal: Difficulty swallowing (less than 1%)”. The Dizziness (in vivo) was “Neurologic: Dizziness (2% to 3%), Headache (2% to 4%),”, the Fatigue (in vivo) was “Other: Fatigue (1% to 4%)” and the Headache (in vivo) was “Neurologic: Dizziness (2% to 3%), Headache (2% to 4%),”. The Hypotension (in vivo) was “Cardiovascular: Hypotension (less than 1%), Orthostatic”, the Opioid withdrawal (in vivo) was “Opioid withdrawal (less than 1%)” and the Orthostatic hypotension (in vivo) was “hypotension (less than 1%), Prolonged QT interval, Syncope”. The Peripheral edema (in vivo) was “Cardiovascular: Peripheral edema (1% to less than 5%%)”, the Pruritus (in vivo) was “Dermatologic: Pruritus (0% to less than 5%)” and the “Serious side effect, Cardiovascular” value (in vivo) was “hypotension (less than 1%), Prolonged QT interval, Syncope”. For the same compound, the “Serious side effect, Neurologic” value (in vivo) was “Neurologic: Raised intracranial pressure, Seizure”, the “Serious side effect, Other” value (in vivo) was “Other: Drug withdrawal syndrome in neonate of dependent mother,” and the “Serious side effect, Respiratory” value (in vivo) was “Respiratory: Respiratory depression”. For the same compound, the Somnolence (in vivo) was “Somnolence (1% to 5%), Tremor (3%)”, the Spasm (in vivo) was “Musculoskeletal: Spasm (1% to less than 5%)” and the Tremor (in vivo) was “Somnolence (1% to 5%), Tremor (3%)”. The Upper respiratory infection (in vivo) was “Respiratory: Upper respiratory infection (1% to 3%)”, the “Urinary tract infectious disease” value (in vivo) was “Renal: Urinary tract infectious disease (1% to 5%)” and the Xerostomia (in vivo) was 6%), Xerostomia (1% to less than 5%).
For `O=C(O)Cc1ccccc1Nc1c(Cl)cccc1Cl` [Zorvolex], the Constipation (in vivo) is given as “Gastrointestinal: Constipation (5% to 8%), Diarrhea (6%), Nausea”, the Diarrhea (in vivo) is given as “Gastrointestinal: Constipation (5% to 8%), Diarrhea (6%), Nausea” and the Headache (in vivo) is given as “Neurologic: Headache (4% to 8%)”. For the same compound, the Nasopharyngitis (in vivo) was “Respiratory: Nasopharyngitis (6%), Sinusitis (3% to 5%), Upper”, the Nausea (in vivo) was “(6% to 7%)” and the “Serious side effect, Cardiovascular” value (in vivo) was “Cardiovascular: Myocardial infarction, Thrombosis”. For the same compound, the “Serious side effect, Gastrointestinal” value (in vivo) was “Gastrointestinal: Gastrointestinal hemorrhage, Gastrointestinal”, the “Serious side effect, Immunologic” value (in vivo) was “Immunologic: Anaphylactoid reaction” and the “Serious side effect, Neurologic” value (in vivo) was “Neurologic: Cerebrovascular accident”. The “Serious side effect, Renal” value (in vivo) was “Renal: Acute renal failure”, the “Serious side effect, Respiratory” value (in vivo) was “Respiratory: Bronchospasm” and the Sinusitis (in vivo) was “Respiratory: Nasopharyngitis (6%), Sinusitis (3% to 5%), Upper”. The Upper respiratory infection (in vivo) was “respiratory infection (8%)” and the “Urinary tract infectious disease” value (in vivo) was “Renal: Urinary tract infectious disease (7%)”.
For `Nc1nnc(-c2cccc(Cl)c2Cl)c(N)n1` [Lamictal XR], the Anxiety (extended-release) is given as 3%, the Asthenia (extended-release) is given as 6% and the Blurred vision (extended-release) is given as 3%. The Coordination problem (extended-release) was 3%, the Depression (extended-release) was 3% and the Diarrhea (extended-release) was 5%. For the same compound, the Diplopia (extended-release) was “extended-release, 5%)”, the Dizziness (extended-release) was 14% and the Nausea (extended-release) was 7%. For the same compound, the Somnolence (extended-release) was 5%, the Tremor (extended-release) was 6% and the Vertigo (extended-release) was “release, 3%)”. The Vomiting (extended-release) was 6%, the Anemia (immediate release) was “Hematologic: Anemia (immediate release, less than 0.1%),” and the Eosinophilia (immediate release) was < 0.1%. For the same compound, the Thrombocytopenia (immediate release) was < 1%), Thrombocytopenia (immediate release, less than 0.1%), the Anxiety (immediate-release) was “Psychiatric: Anxiety (immediate-release, 4%; extended-release,” and the Depression (immediate-release) was 4%. For the same compound, the Headache (immediate-release) was “Headache (immediate-release, 29%), Insomnia (immediate-release,”, the Pain (immediate-release) was “Other: Pain (immediate-release, 5%)” and the Vertigo (immediate-release) was 2%. The Blurred vision (immediate-release, children) was 4%, the Diplopia (immediate-release, children) was 5% and the Angioedema (in vivo) was < 0.1%. For the same compound, the Erythema multiforme (in vivo) was “Dermatologic: Erythema multiforme (less than 0.1%), Rash,”, the “Serious side effect, Hematologic” value (listed without frequency) was “Disseminated intravascular coagulation, Eosinophilia (immediate” and the “Serious side effect, Hepatic” value (listed without frequency) was “Hepatic: Liver failure”. For the same compound, the “Serious side effect, Immunologic” value (listed without frequency) was “Immunologic: Drug hypersensitivity syndrome” and the “Serious side effect, Neurologic” value (listed without frequency) was “Neurologic: Aseptic meningitis”.
